Measured values: patent publication US20260022142A1, “MACROCYCLIC IMMUNOMODULATORS” (Bristol-Myers Squibb Company, priority 2022, published 2026)
Bridge positions count the residues as written; N and C are the ends. Square brackets hold non-standard residues; d marks the D form. Peptide text beside a SMILES is read from it. * marks the point of attachment. Phe(4-COOH) = N[C@@H](Cc1ccc(C(=O)O)cc1)C(=O)O; Bip = N[C@@H](Cc1ccc(-c2ccccc2)cc1)C(=O)O; NH(CH2)14COOH = O=C(O)CCCCCCCCCCCCCCN*; Phe(3-Me) = Cc1cccc(C[C@H](N)C(=O)O)c1; NH(CH2)12COOH = O=C(O)CCCCCCCCCCCCN*; Val(3-OH) = CC(C)(O)[C@H](N)C(=O)O; 4Pal = N[C@@H](Cc1ccncc1)C(=O)O; Cha = N[C@@H](CC1CCCCC1)C(=O)O; Carboxymethyl = O=C(O)C*; Orn = NCCC[C@H](N)C(=O)O; Aun = NCCCCCCCCCCC(=O)O; Dab = NCC[C@H](N)C(=O)O; Nva = CCC[C@H](N)C(=O)O; Dap = NC[C@H](N)C(=O)O; AEEA = NCCOCCOCC(=O)O

Target: T1, PD-1/PD-L1 interaction (PE-labeled human PD-L1-Ig binding to Jurkat cell line over-expressing human PD-1) (Homo sapiens, UniProt Q15116)
T1 construct: expressed in transfected cells; host or cells: Jurkat
Assay: Jurkat-PD-1 Cell Binding High-Content Screening Assay (CBA)
Assay type: cell-based
Settings: Jurkat cell line over-expressing human PD-1; PE-labeled PD-L1-Ig 20 nM final; read-out: Jurkat hPD1-PDL1 IC50
Procedure, shortened: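 Binding of fluorescent PD-L1-Ig (phycoerythrin on Ig tag, 20 nM final, 1 h) measured by high-content imaging of fixed, Hoechst-counterstained Jurkat-hPD-1 cells. Compound added 2 h at 37° C beforehand, in DMEM with 10% fetal calf serum.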

T1 sequence (Q15116 25-288): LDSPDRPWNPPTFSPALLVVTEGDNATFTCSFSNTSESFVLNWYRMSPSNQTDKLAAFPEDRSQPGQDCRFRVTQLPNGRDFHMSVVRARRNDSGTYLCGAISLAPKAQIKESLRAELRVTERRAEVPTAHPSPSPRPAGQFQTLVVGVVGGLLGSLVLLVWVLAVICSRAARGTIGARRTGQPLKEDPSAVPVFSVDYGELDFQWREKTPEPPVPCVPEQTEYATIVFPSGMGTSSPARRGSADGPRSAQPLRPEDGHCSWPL

SMILES | IC50
Cc1cccc(C[C@@H]2NC(=O)[C@H](CC(=O)O)NC(=O)[C@H](Cc3ccc(OCC(=O)O)cc3)NC(=O)[C@H](CN)NC(=O)CSC[C@@H](C(=O)N[C@@H](CCN)C(=O)NCCCCCCCCCCC(=O)O)NC(=O)[C@H](CCCN)NC(=O)[C@H](C(C)C)NC(=O)[C@H](CC3CCCCC3)NC(=O)[C@H](CCN)NC(=O)[C@@H](CC(C)C)NC(=O)[C@H](CCCN)NC(=O)[C@H](Cc3ccc(OCC(=O)O)cc3)NC(=O)[C@H](Cc3ccc(-c4ccccc4)cc3)NC(=O)[C@H](Cc3ccc(O)cc3)NC2=O)c1 [Compound 2858] ({CH2CO}-[Dap]Y(Carboxymethyl)D[Phe(3-Me)]Y[Bip]Y(Carboxymethyl)[Orn][dL][Dab][Cha]V[Orn]C[Dab][Aun]-OH; thioether N-14) | 11.9 nM
Cc1cccc(C[C@@H]2NC(=O)[C@H](CC(=O)O)NC(=O)[C@H](Cc3ccc(OCC(=O)O)cc3)NC(=O)[C@H](CN)NC(=O)CSC[C@@H](C(=O)N[C@@H](CCN)C(=O)NCCOCCOCC(=O)NCCCCCCCCCCC(=O)O)NC(=O)[C@H](CCCN)NC(=O)[C@H](C(C)C)NC(=O)[C@H](CC3CCCCC3)NC(=O)[C@H](CCN)NC(=O)[C@@H](CC(C)C)NC(=O)[C@H](CCCN)NC(=O)[C@H](Cc3ccc(OCC(=O)O)cc3)NC(=O)[C@H](Cc3ccc(-c4ccccc4)cc3)NC(=O)[C@H](Cc3ccc(O)cc3)NC2=O)c1 [Compound 2859] ({CH2CO}-[Dap]Y(Carboxymethyl)D[Phe(3-Me)]Y[Bip]Y(Carboxymethyl)[Orn][dL][Dab][Cha]V[Orn]C[Dab][AEEA][Aun]-OH; thioether N-14) | 7.8 nM
Cc1cccc(C[C@@H]2NC(=O)[C@H](CC(=O)O)NC(=O)[C@H](Cc3ccc(OCC(=O)O)cc3)NC(=O)[C@H](CN)NC(=O)CSC[C@@H](C(=O)N[C@@H](CCN)C(=O)NCCOCCOCC(=O)NCCCCCCCCCCC(=O)O)NC(=O)[C@H](CCCN)NC(=O)[C@H](C(C)C)NC(=O)[C@H](CC3CCCCC3)NC(=O)[C@H](CCN)NC(=O)[C@@H](CC(C)C)NC(=O)[C@H](CCCN)NC(=O)[C@H](Cc3ccc(OCC(=O)O)cc3)NC(=O)[C@H](Cc3ccc(-c4ccccc4)cc3)NC(=O)[C@H](Cc3ccc(OCC(=O)O)cc3)NC2=O)c1 [Compound 2860] ({CH2CO}-[Dap]Y(Carboxymethyl)D[Phe(3-Me)]Y(Carboxymethyl)[Bip]Y(Carboxymethyl)[Orn][dL][Dab][Cha]V[Orn]C[Dab][AEEA][Aun]-OH; thioether N-14) | 11.2 nM
Cc1cccc(C[C@@H]2NC(=O)[C@H](CC(=O)O)NC(=O)[C@H](Cc3ccc(OCC(=O)O)cc3)NC(=O)[C@H](Cc3ccncc3)NC(=O)CSC[C@@H](C(=O)N[C@@H](CCN)C(=O)NCCOCCOCC(=O)NCCCCCCCCCCC(=O)O)NC(=O)[C@H](CO)NC(=O)[C@H](C(C)(C)O)NC(=O)[C@H](CC3CCCCC3)NC(=O)[C@H](CCN)NC(=O)[C@@H](CC(C)C)NC(=O)[C@H](CCCN)NC(=O)[C@H](Cc3ccc(C(=O)O)cc3)NC(=O)[C@H](Cc3ccc(-c4ccccc4)cc3)NC(=O)[C@H](Cc3ccc(C(=O)O)cc3)NC2=O)c1 [Compound 2862] ({CH2CO}-[4Pal]Y(Carboxymethyl)D[Phe(3-Me)][Phe(4-COOH)][Bip][Phe(4-COOH)][Orn][dL][Dab][Cha][Val(3-OH)]SC[Dab][AEEA][Aun]-OH; thioether N-14) | 228 nM
Cc1cccc(C[C@@H]2NC(=O)[C@H](CC(=O)O)NC(=O)[C@H](Cc3ccc(OCC(=O)O)cc3)NC(=O)[C@H](CCCNC(=N)N)NC(=O)CSC[C@@H](C(=O)N[C@@H](CCN)C(=O)NCCCCCCCCCCC(=O)O)NC(=O)[C@H](CCC(=O)O)NC(=O)[C@H](C(C)(C)O)NC(=O)[C@H](CC3CCCCC3)NC(=O)[C@H](CCN)NC(=O)[C@@H](CC(C)C)NC(=O)[C@H](CCCN)NC(=O)[C@H](Cc3ccc(OCC(=O)O)cc3)NC(=O)[C@H](Cc3ccc(-c4ccccc4)cc3)NC(=O)[C@H](Cc3ccc(OCC(=O)O)cc3)NC2=O)c1 [Compound 2863] ({CH2CO}-RY(Carboxymethyl)D[Phe(3-Me)]Y(Carboxymethyl)[Bip]Y(Carboxymethyl)[Orn][dL][Dab][Cha][Val(3-OH)]EC[Dab][Aun]-OH; thioether N-14) | 8.7 nM
Cc1cccc(C[C@@H]2NC(=O)[C@H](CC(=O)O)NC(=O)[C@H](Cc3ccc(OCC(=O)O)cc3)NC(=O)[C@H](CCCNC(=N)N)NC(=O)CSC[C@@H](C(=O)N[C@@H](CCN)C(=O)NCCCCCCCCCCC(=O)O)NC(=O)[C@H](CC(=O)O)NC(=O)[C@H](C(C)(C)O)NC(=O)[C@H](CC3CCCCC3)NC(=O)[C@H](CCN)NC(=O)[C@@H](CC(C)C)NC(=O)[C@H](CCCN)NC(=O)[C@H](Cc3ccc(OCC(=O)O)cc3)NC(=O)[C@H](Cc3ccc(-c4ccccc4)cc3)NC(=O)[C@H](Cc3ccc(OCC(=O)O)cc3)NC2=O)c1 [Compound 2864] ({CH2CO}-RY(Carboxymethyl)D[Phe(3-Me)]Y(Carboxymethyl)[Bip]Y(Carboxymethyl)[Orn][dL][Dab][Cha][Val(3-OH)]DC[Dab][Aun]-OH; thioether N-14) | 3.3 nM
CCC[C@@H]1NC(=O)CSC[C@@H](C(=O)N[C@@H](CCN)C(=O)NCCOCCOCC(=O)NCCOCCOCC(=O)NCCCCCCCCCCCCCCC(=O)O)NC(=O)[C@H](CO)NC(=O)[C@H](C(C)(C)O)NC(=O)[C@H](CC2CCCCC2)NC(=O)[C@H](CCN)NC(=O)[C@@H](CC(C)C)NC(=O)[C@H](CCCN)NC(=O)[C@H](Cc2ccc(OCC(=O)O)cc2)NC(=O)[C@H](Cc2ccc(-c3ccccc3)cc2)NC(=O)[C@H](Cc2ccc(OCC(=O)O)cc2)NC(=O)[C@H](Cc2cccc(C)c2)NC(=O)[C@H](CC(=O)O)NC(=O)[C@H](Cc2ccc(OCC(=O)O)cc2)NC1=O [Compound 2866] ({CH2CO}-[Nva]Y(Carboxymethyl)D[Phe(3-Me)]Y(Carboxymethyl)[Bip]Y(Carboxymethyl)[Orn][dL][Dab][Cha][Val(3-OH)]SC[Dab][AEEA][AEEA]-{NH(CH2)14COOH}; thioether N-14) | 101 nM
CCC[C@@H]1NC(=O)CSC[C@@H](C(=O)N[C@@H](CCN)C(=O)NCCOCCOCC(=O)NCCCCCCCCCCCCC(=O)O)NC(=O)[C@H](CO)NC(=O)[C@H](C(C)(C)O)NC(=O)[C@H](CC2CCCCC2)NC(=O)[C@H](CCN)NC(=O)[C@@H](CC(C)C)NC(=O)[C@H](CCCN)NC(=O)[C@H](Cc2ccc(OCC(=O)O)cc2)NC(=O)[C@H](Cc2ccc(-c3ccccc3)cc2)NC(=O)[C@H](Cc2ccc(OCC(=O)O)cc2)NC(=O)[C@H](Cc2cccc(C)c2)NC(=O)[C@H](CC(=O)O)NC(=O)[C@H](Cc2ccc(OCC(=O)O)cc2)NC1=O [Compound 2867] ({CH2CO}-[Nva]Y(Carboxymethyl)D[Phe(3-Me)]Y(Carboxymethyl)[Bip]Y(Carboxymethyl)[Orn][dL][Dab][Cha][Val(3-OH)]SC[Dab][AEEA]-{NH(CH2)12COOH}; thioether N-14) | 11.1 nM
CCC[C@@H]1NC(=O)CSC[C@@H](C(=O)N[C@@H](CCN)C(=O)NCCOCCOCC(=O)NCCCCCCCCCCCCCCC(=O)O)NC(=O)[C@H](CO)NC(=O)[C@H](C(C)(C)O)NC(=O)[C@H](CC2CCCCC2)NC(=O)[C@H](CCN)NC(=O)[C@@H](CC(C)C)NC(=O)[C@H](CCCN)NC(=O)[C@H](Cc2ccc(OCC(=O)O)cc2)NC(=O)[C@H](Cc2ccc(-c3ccccc3)cc2)NC(=O)[C@H](Cc2ccc(OCC(=O)O)cc2)NC(=O)[C@H](Cc2cccc(C)c2)NC(=O)[C@H](CC(=O)O)NC(=O)[C@H](Cc2ccc(OCC(=O)O)cc2)NC1=O [Compound 2868] ({CH2CO}-[Nva]Y(Carboxymethyl)D[Phe(3-Me)]Y(Carboxymethyl)[Bip]Y(Carboxymethyl)[Orn][dL][Dab][Cha][Val(3-OH)]SC[Dab][AEEA]-{NH(CH2)14COOH}; thioether N-14) | 467 nM
Cc1cccc(C[C@@H]2NC(=O)[C@H](CC(=O)O)NC(=O)[C@H](Cc3ccc(OCC(=O)O)cc3)NC(=O)[C@H](CCN)NC(=O)CSC[C@@H](C(=O)N[C@@H](CCN)C(=O)NCCOCCOCC(=O)NCCCCCCCCCCCCC(=O)O)NC(=O)[C@H](Cc3c[nH]cn3)NC(=O)[C@H](C(C)(C)O)NC(=O)[C@H](CC3CCCCC3)NC(=O)[C@H](CCN)NC(=O)[C@@H](CC(C)C)NC(=O)[C@H](CCCN)NC(=O)[C@H](Cc3ccc(OCC(=O)O)cc3)NC(=O)[C@H](Cc3ccc(-c4ccccc4)cc3)NC(=O)[C@H](Cc3ccc(OCC(=O)O)cc3)NC2=O)c1 [Compound 2871] ({CH2CO}-[Dab]Y(Carboxymethyl)D[Phe(3-Me)]Y(Carboxymethyl)[Bip]Y(Carboxymethyl)[Orn][dL][Dab][Cha][Val(3-OH)]HC[Dab][AEEA]-{NH(CH2)12COOH}; thioether N-14) | 16.9 nM
Cc1cccc(C[C@@H]2NC(=O)[C@H](CC(=O)O)NC(=O)[C@H](Cc3ccc(OCC(=O)O)cc3)NC(=O)[C@H](CCN)NC(=O)CSC[C@@H](C(=O)N[C@@H](CCN)C(=O)NCCOCCOCC(=O)NCCCCCCCCCCCCCCC(=O)O)NC(=O)[C@H](Cc3c[nH]cn3)NC(=O)[C@H](C(C)(C)O)NC(=O)[C@H](CC3CCCCC3)NC(=O)[C@H](CCN)NC(=O)[C@@H](CC(C)C)NC(=O)[C@H](CCCN)NC(=O)[C@H](Cc3ccc(OCC(=O)O)cc3)NC(=O)[C@H](Cc3ccc(-c4ccccc4)cc3)NC(=O)[C@H](Cc3ccc(OCC(=O)O)cc3)NC2=O)c1 [Compound 2872] ({CH2CO}-[Dab]Y(Carboxymethyl)D[Phe(3-Me)]Y(Carboxymethyl)[Bip]Y(Carboxymethyl)[Orn][dL][Dab][Cha][Val(3-OH)]HC[Dab][AEEA]-{NH(CH2)14COOH}; thioether N-14) | 83.8 nM
